Results from paper PMC6219798, “A novel decarboxylating amidohydrolase involved in avoiding metabolic dead ends during cyanuric acid catabolism in Pseudomonas sp. strain ADP” (PLoS ONE, 2018).

How the values were obtained:
AtzEG = biological target: T1, AtzEG (Pseudomonas sp. ADP, UniProt Q936X3); assay: GDH-coupled ammonia release at […] nm; assay type: biochemical; details: substrate made in situ by AtzD from 1 mM cyanuric acid; 0.17 uM enzyme, 25 mM potassium phosphate pH 8.5
T1 construct: gene atzE; AtzE and AtzG co-expressed from pACYCDuet-1 in E. coli BL21(DE3); heterotetramer; with 1-carboxybiuret hydrolase subunit AtzG
T1 sequence (Q936X3 1-457): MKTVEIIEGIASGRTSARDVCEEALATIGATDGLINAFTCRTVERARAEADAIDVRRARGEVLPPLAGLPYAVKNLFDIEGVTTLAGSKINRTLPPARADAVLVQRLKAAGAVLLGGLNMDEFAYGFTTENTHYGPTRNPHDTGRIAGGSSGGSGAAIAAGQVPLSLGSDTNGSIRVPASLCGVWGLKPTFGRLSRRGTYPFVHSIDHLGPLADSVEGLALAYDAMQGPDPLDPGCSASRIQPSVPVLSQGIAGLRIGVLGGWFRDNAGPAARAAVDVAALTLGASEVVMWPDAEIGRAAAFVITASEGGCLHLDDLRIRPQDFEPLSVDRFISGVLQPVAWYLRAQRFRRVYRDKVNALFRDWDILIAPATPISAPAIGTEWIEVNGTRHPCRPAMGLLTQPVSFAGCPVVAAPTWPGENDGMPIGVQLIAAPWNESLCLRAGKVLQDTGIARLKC
T1 sequence (A0A384E126 1-68 partner): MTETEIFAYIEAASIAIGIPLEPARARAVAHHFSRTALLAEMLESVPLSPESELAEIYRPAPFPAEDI

AtzD = biological target: T2, AtzD (Pseudomonas sp. ADP, UniProt P58329); assay: UV absorbance at […] nm, ring opening; assay type: biochemical; details: 12 uM AtzD, 1 mM cyanuric acid
T2 construct: His6-tagged, E. coli BL21(DE3), Ni-NTA purified; cloning described elsewhere
T2 sequence (P58329 1-363): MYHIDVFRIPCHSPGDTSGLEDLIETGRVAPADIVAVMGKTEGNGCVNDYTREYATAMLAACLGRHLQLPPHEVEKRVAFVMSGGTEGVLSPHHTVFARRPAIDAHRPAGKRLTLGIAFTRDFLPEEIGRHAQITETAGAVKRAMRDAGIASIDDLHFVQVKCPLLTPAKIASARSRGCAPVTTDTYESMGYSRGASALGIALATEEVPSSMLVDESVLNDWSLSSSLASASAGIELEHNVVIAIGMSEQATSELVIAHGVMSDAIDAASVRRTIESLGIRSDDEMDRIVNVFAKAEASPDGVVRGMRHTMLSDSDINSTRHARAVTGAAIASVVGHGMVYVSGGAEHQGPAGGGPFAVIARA

[1] = biological target: AtzH from Pseudomonas sp. strain ADP, his-tag removed (Pseudomonas sp. strain ADP); assay: SEC; size exclusion chromatography of AtzH after removal of the his-tag; Superdex preparation grade resin, 130 mL column, 25 mM HEPES, 200 mM NaCl, pH 7.5

NC(=O)NC(=O)NC(=O)O [1-carboxybiuret]
GDH-coupled ammonia release at 340 nm (AtzEG): The substrate for AtzEG (1-carboxybiuret) is unstable and was therefore produced in situ

O=c1[nH]c(=O)[nH]c(=O)[nH]1 [cyanuric acid, 1,3,5-triazine-2,4,6-triol]
UV absorbance at 214 nm, ring opening (AtzD): incubating AtzD and its substrate in the presence or absence of AtzH

AtzH from Pseudomonas sp. strain ADP, his-tag removed (enzyme)
stoichiometry N [1]: 2
